From patent US9024019B2, “Insecticidal triazinone derivatives” (Syngenta Participations AG, priority 2011, dated 2015)

| SMILES | melting point |
| --- | --- |
| O=C1NN=C(C2=NOC(C(F)(F)F)(C(F)(F)F)C2)CN1/N=C/c1cncc(F)c1 | 290 °C (dec.) |
| CO/N=C/C1=NNC(=O)N(/N=C/c2cccnc2)C1 | 237 to 238 °C |
| CC1(C)CC(C2=NNC(=O)N(/N=C/c3cccnc3)C2)=NO1 | 212 °C (dec.) |
| O=C1NN=C(C2=NOC(C(F)(F)F)(C(F)(F)F)C2)CN1/N=C/c1cccnc1 | 270 °C (dec.) |
| CO/N=C/C1=NNC(=O)N(/N=C/c2cncc(F)c2)C1 | 226 to 227 °C |
| CN(C)/N=C/C1=NNC(=O)N(/N=C/c2cccnc2)C1 | 229 °C (dec.) |
| CC1(C)CC(C2=NNC(=O)N(/N=C/c3cncc(F)c3)C2)=NO1 | 260 °C (dec.) |
| CO/N=C/C1=NNC(=O)N(/N=C/c2cncnc2)C1 | 244 to 245 °C |
| CO/N=C(\C)C1=NNC(=O)N(/N=C/c2cccnc2)C1 | 230 to 231 °C |
| CCO/N=C/C1=NNC(=O)N(/N=C/c2cccnc2)C1 | 233 to 234 °C |
| CO/N=C/C1=NNC(=O)N(/N=C/c2ccc[n+]([O-])c2)C1 | 229 °C (dec.) |
| CO/N=C/C1=NNC(=O)N(/N=C/c2cnccn2)C1 | 233 to 234 °C |
